≈ marks a conversion by molar mass, not a printed value.
Assays:
Escherichia coli [1] = test: Antibacterial activity against Escherichia coli at 50 ug/mL; type: functional; details: read-out: IZ
Escherichia coli [2] = test: Antibacterial activity against Escherichia coli at 100 ug/mL; type: functional; details: read-out: IZ
Bacillus subtilis [3] = test: Antibacterial activity against Bacillus subtilis at 50 ug/mL; type: functional; details: read-out: IZ
Bacillus subtilis [4] = test: Antibacterial activity against Bacillus subtilis at 100 ug/mL; type: functional; details: read-out: IZ
Aspergillus flavus [5] = test: Antifungal activity against Aspergillus flavus at 50 ug/mL; type: functional; details: read-out: IZ
Aspergillus flavus [6] = test: Antifungal activity against Aspergillus flavus at 100 ug/mL; type: functional; details: read-out: IZ
Penicillium citrinum [7] = test: Antifungal activity against Penicillium citrinum at 50 ug/mL; type: functional; details: read-out: IZ
Penicillium citrinum [8] = test: Antifungal activity against Penicillium citrinum at 100 ug/mL; type: functional; details: read-out: IZ
Fusarium oxysporum [9] = test: Antifungal activity against Fusarium oxysporum at 50 ug/mL; type: functional; details: read-out: IZ
Fusarium oxysporum [10] = test: Antifungal activity against Fusarium oxysporum at 100 ug/mL; type: functional; details: read-out: IZ
Escherichia coli [11] = test: Antibacterial activity against Escherichia coli; type: functional
Bacillus subtilis [12] = test: Antibacterial activity against Bacillus subtilis; type: functional
Aspergillus flavus [13] = test: Antifungal activity against Aspergillus flavus; type: functional
Penicillium citrinum [14] = test: Antifungal activity against Penicillium citrinum; type: functional
Fusarium oxysporum [15] = test: Antifungal activity against Fusarium oxysporum; type: functional
Salmonella typhi [16] = test: Antibacterial activity against Salmonella typhi
Salmonella typhi [17] = test: Antibacterial activity against Salmonella typhi at 50 ug/mL; details: read-out: IZ
Salmonella typhi [18] = test: Antibacterial activity against Salmonella typhi at 100 ug/mL; details: read-out: IZ

Row | SMILES | zone of inhibition at 50 µg/mL (Escherichia coli [1]) [mm] | zone of inhibition at 100 µg/mL (Escherichia coli [2]) [mm] | zone of inhibition at 50 µg/mL (Bacillus subtilis [3]) [mm] | zone of inhibition at 100 µg/mL (Bacillus subtilis [4]) [mm] | zone of inhibition at 50 µg/mL (Aspergillus flavus [5]) [mm] | zone of inhibition at 100 µg/mL (Aspergillus flavus [6]) [mm] | zone of inhibition at 50 µg/mL (Penicillium citrinum [7]) [mm] | zone of inhibition at 100 µg/mL (Penicillium citrinum [8]) [mm] | zone of inhibition at 50 µg/mL (Fusarium oxysporum [9]) [mm] | zone of inhibition at 100 µg/mL (Fusarium oxysporum [10]) [mm] | MIC (Escherichia coli [11]) [µg/mL] | MIC (Bacillus subtilis [12]) [µg/mL] | MIC (Aspergillus flavus [13]) [µg/mL] | MIC (Penicillium citrinum [14]) [µg/mL] | MIC (Fusarium oxysporum [15]) [µg/mL] | MIC (Salmonella typhi [16]) [µg/mL] | zone of inhibition at 50 µg/mL (Salmonella typhi [17]) [mm] | zone of inhibition at 100 µg/mL (Salmonella typhi [18]) [mm]
1 | O=C(Cn1ncc2cc([N+](=O)[O-])ccc21)N/N=C/c1ccccc1Cl | 18.2 | 21 | 16 | 19.4 | 19 | 22 | 15.8 | 20.5 | 20.1 | 22 | 16 (≈ 44.7 µM) | 20 (≈ 55.9 µM) | 17 (≈ 47.5 µM) | 22 (≈ 61.5 µM) | 13 (≈ 36.3 µM) | 17 (≈ 47.5 µM) | 16.9 | 21
2 | O=C(Cn1ncc2cc([N+](=O)[O-])ccc21)N/N=C/c1ccccc1 | 14 | 16.4 | 11.5 | 14.8 | 13.6 | 16.7 | 11.5 | 15.5 | 15 | 17.4 | 22 (≈ 68 µM) | 30 (≈ 92.8 µM) | 20 (≈ 61.9 µM) | 30 (≈ 92.8 µM) | 17 (≈ 52.6 µM) | 22 (≈ 68 µM) | 12.7 | 16
3 | O=C(Cn1ncc2cc([N+](=O)[O-])ccc21)NN1C(=O)CSC1c1ccccc1O (stereo not given) | 18.4 | 20.5 | 14.7 | 18.9 | 17.3 | 20.4 | 16 | 19.7 | 18.5 | 21.4 | 16 (≈ 38.7 µM) | 21 (≈ 50.8 µM) | 18 (≈ 43.5 µM) | 22 (≈ 53.2 µM) | 15 (≈ 36.3 µM) | 17 (≈ 41.1 µM) | 16 | 19.9
4 | COC1=CC(=O)C[C@@H](C)[C@]12Oc1c(Cl)c(OC)cc(OC)c1C2=O [GRISEOFULVIN] |  |  |  |  | 27 | 30 | 25 | 28 | 28 | 32 |  |  | 9 (≈ 25.5 µM) | 11 (≈ 31.2 µM) | 6 (≈ 17 µM) |  |  | 
5 | O=C(Cn1ncc2cc([N+](=O)[O-])ccc21)NN1C(=O)CSC1c1ccc(Cl)cc1 (stereo not given) | 22.3 | 25.6 | 18.8 | 23.7 | 22.3 | 25 | 20.2 | 24.4 | 22.9 | 25.8 | 13 (≈ 30.1 µM) | 16 (≈ 37 µM) | 13 (≈ 30.1 µM) | 17 (≈ 39.4 µM) | 11 (≈ 25.5 µM) | 15 (≈ 34.7 µM) | 20 | 23.9
6 | CN(C)c1ccc(/C=N/NC(=O)Cn2ncc3cc([N+](=O)[O-])ccc32)cc1 | 10.6 | 12.5 | 7.5 | 11 | 9.5 | 12.4 | 8.2 | 11.5 | 11.4 | 13.8 | 30 (≈ 81.9 µM) | 41 (≈ 112 µM) | 27 (≈ 73.7 µM) | 36 (≈ 98.3 µM) | 23 (≈ 62.8 µM) | 32 (≈ 87.3 µM) | 8.6 | 12
7 | COc1ccccc1/C=N/NC(=O)Cn1ncc2cc([N+](=O)[O-])ccc21 | 11.5 | 14 | 9 | 12.8 | 11 | 14 | 9.1 | 12.8 | 12.6 | 15.2 | 27 (≈ 76.4 µM) | 38 (≈ 108 µM) | 23 (≈ 65.1 µM) | 35 (≈ 99.1 µM) | 20 (≈ 56.6 µM) | 30 (≈ 84.9 µM) | 9.8 | 13.5
8 | O=C(Cn1ncc2cc([N+](=O)[O-])ccc21)NN1C(=O)CSC1c1ccccc1Br (stereo not given) | 19.2 | 21.8 | 16 | 20.5 | 18.8 | 21.7 | 17.2 | 21 | 19.8 | 22.6 | 17 (≈ 35.7 µM) | 20 (≈ 42 µM) | 17 (≈ 35.7 µM) | 20 (≈ 42 µM) | 13 (≈ 27.3 µM) | 17 (≈ 35.7 µM) | 17.2 | 21

From ChEMBL document CHEMBL1240428, “Conventional and microwave assisted synthesis of some new N-[(4-oxo-2-substituted aryl -1, 3-thiazolidine)-acetamidyl]-5-nitroindazoles and its antimicrobial activity” (2010)
